Source: PubChem BioAssay (NCI)
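Dose response: 5 concentrations. Exposure: 48 h. Format: 96-well plates. Endpoint: linear interpolation; highest concentration if not reached. TGI denotes the concentration required for complete inhibition of growth.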

How the values were obtained:
Assay in all cases: NCI anticancer screen, dose series, 48 h
OVCAR-8 ovarian = tested on: OVCAR-8 ovarian
HOP-92 NSCLC = tested on: HOP-92 NSCLC
A549 NSCLC = tested on: A549 NSCLC
MALME-3M melanoma = tested on: MALME-3M melanoma
786-0 renal = tested on: 786-0 renal
NCI-H23 lung = tested on: NCI-H23 lung
RPMI-8226 leukemia = tested on: RPMI-8226 leukemia
HL-60(TB) leukemia = tested on: HL-60(TB) leukemia
NCI-H460 lung = tested on: NCI-H460 lung
SNB-19 CNS = tested on: SNB-19 CNS
SF-539 CNS = tested on: SF-539 CNS
DU-145 prostate = tested on: DU-145 prostate
KM12 colon = tested on: KM12 colon

Structure (SMILES)	TGI (OVCAR-8 ovarian) [µM]	TGI (HOP-92 NSCLC) [µM]	TGI (A549 NSCLC) [µM]	TGI (MALME-3M melanoma) [µM]	TGI (786-0 renal) [µM]	TGI (NCI-H23 lung) [µM]	TGI (RPMI-8226 leukemia) [µM]	TGI (HL-60(TB) leukemia) [µM]	TGI (NCI-H460 lung) [µM]	TGI (SNB-19 CNS) [µM]	TGI (SF-539 CNS) [µM]	TGI (DU-145 prostate) [µM]	TGI (KM12 colon) [µM]
O=Cc1[nH]c(=O)[nH]c(=O)c1CCl	> 100	> 100	> 100	> 100	> 100	> 100	> 72.1	> 72.9	99.5	> 100	> 100	> 100	> 100
CC(=O)O[C@H]1[C@H](OC(C)=O)[C@@H](CN=[N+]=[N-])OCO[C@@H]1CN=[N+]=[N-]	> 100	> 100	> 100	> 100	> 100	> 100	> 100	> 100	> 100	> 100	> 100	> 100	> 100
BrCCC[P+](c1ccccc1)(c1ccccc1)c1ccccc1	> 100	44.4	> 63.8	> 100	> 100	> 64.7	> 100	6.49	> 100	> 100	> 100	> 100	58.1
C[N+](C)(C)C1(C(=O)[O-])CC1	> 100	> 100	> 100	> 100	> 100	> 100	> 100	> 100	> 100	> 100	> 100	> 100	–
COc1cc(C=Nc2ccc(S(N)(=O)=O)cc2)cc(OC)c1	> 50	> 50	> 50	> 50	> 50	> 50	> 50	36.8	> 50	> 50	> 50	> 50	> 50
O=C1C=CC[C@H](/C=C/C[C@@H](O)C[C@H](O)/C=C/c2ccccc2)O1	32.9	13.7	33.5	28.6	29.6	23.5	–	17.7	35.3	34.1	21.5	26.3	24.7
O=C(Nc1nncs1)NS(=O)(=O)n1cnc2ccccc21	> 100	> 100	> 100	> 100	> 100	> 100	> 100	> 100	> 100	> 100	> 100	> 100	> 100
COC1=CC(=O)c2c(O)ccc(O)c2C1=O	55.5	33	4.09	0.357	28	9.32	38.2	23	12.9	18.8	10.4	3.18	16.4
Clc1ccc2c(c1)CC1C[N+]3=C(CCCC3)C1=C2 (centres undefined)	> 100	> 100	> 100	> 100	> 100	> 100	–	> 100	> 100	> 100	–	> 100	> 100
CC(=O)OCC1OC(n2c3c(cc(C#N)c2=S)CCCCCC3)C(OC(C)=O)C(OC(C)=O)C1OC(C)=O (centres undefined)	> 100	> 100	> 100	> 100	> 100	> 100	> 100	> 100	> 100	> 100	> 100	> 100	> 100
CC1C2(C)OC(=N)C(C#N)(C(c3ccco3)O2)C1(C#N)C#N (centres undefined)	> 100	47.3	> 100	88.7	49.5	93.6	–	48.3	44.6	> 100	35.9	> 100	> 100
O=c1oc2cc(O)ccc2cc1-c1nc2ccccc2s1	> 100	> 100	55.1	–	52.7	61.2	> 100	55.6	62.2	> 100	46.6	> 100	> 100
O=C(O)CSc1nnc(CCCCCCCCc2nnc(SCC(=O)O)o2)o1	> 100	> 100	> 100	> 100	> 100	> 100	> 100	> 100	> 100	> 100	–	> 100	> 100
COc1ccc(N2CCN(Cc3c(C(C)=O)[n+](=O)c4ccccc4n3[O-])CC2)cc1	> 100	> 100	> 100	60.6	> 100	> 100	> 100	> 100	> 100	> 100	–	> 100	> 100
O=C1/C(=C/c2ccc(Cl)cc2)N=C(c2ccccc2)N1C1Nc2cc3c(cc2S1)NC(N1C(=O)/C(=C/c2ccc(Cl)cc2)N=C1c1ccccc1)S3 (centres undefined)	> 100	> 100	–	–	> 100	> 100	> 100	2.47	> 100	–	> 100	> 100	> 100
NC(N)=NS(=O)(=O)c1ccc(Nc2c3ccccc3nc3c(C(=O)NC(CO)(CO)CO)cccc23)cc1	> 100	48.9	38.2	45.3	46.2	> 100	58.5	71.4	16.6	> 100	–	> 100	38.5
COc1cc(CNC(=O)[C@H](Cc2ccc(O)cn2)NC(C)=O)cc(OC)c1	–	75.5	> 100	> 100	> 100	> 100	> 100	> 100	> 100	> 100	> 100	> 100	> 100
COc1ccc(N=Nc2c(C)c(C#N)c(=S)n(C3OC(COC(C)=O)C(OC(C)=O)C(OC(C)=O)C3OC(C)=O)c2-c2ccccc2)cc1 (centres undefined)	–	7.83	29.7	29.9	10.4	34.6	> 100	> 100	> 100	24.2	–	19.6	20.6
